Test results published in patent US20050282743A1, “Molecular interactions in cells” (Arbor Vita Corporation, priority 2001, published 2005).
Read-outs that look alike come from different tables or passages of the source. Peptide text beside a SMILES is read from it. * marks the point of attachment. Biotin = O=C1N[C@H]2[C@H](CS[C@H]2CCCCC(=O)*)N1

Legend:
[1] = target: T1, PDZ-domain polypeptide (GST/PDZ fusion protein) (Homo sapiens, UniProt O75970); test: Apparent affinity (Kd) by titration of PL peptide in the G assay; assay type: binding; conditions: PDZ MUPP-1, PDZ Domain 7; titration of the PL peptide; read-out: Peptide Optimal Conc (Kd, dissociation constant)
T1 construct: made in house; host or cells: E. coli (DH5alpha, BL21 or JM109)
Summary of the method: (§1)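 A fixed concentration of GST/PDZ fusion protein, 5 ug/ml by default, was mixed in solution with increasing labeled PL peptide (e.g. 0.1 uM-1 mM). Reaction times ranged from 10 minutes to 2 days at 4-37° C. Complexes were separated from free peptide and detected via the label as in the G assay, apparent affinity coming from the saturating concentration.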

[2] = target: T2, PDZ-domain polypeptide (GST/PDZ fusion protein) (Homo sapiens, UniProt Q02410); test: as above; assay type: binding; conditions: titration of the PL peptide, read-out: Peptide Optimal Conc (Kd, dissociation constant)
T2 construct: made in house; host or cells: E. coli (DH5alpha, BL21 or JM109)
T2 sequence (Q02410 1-837): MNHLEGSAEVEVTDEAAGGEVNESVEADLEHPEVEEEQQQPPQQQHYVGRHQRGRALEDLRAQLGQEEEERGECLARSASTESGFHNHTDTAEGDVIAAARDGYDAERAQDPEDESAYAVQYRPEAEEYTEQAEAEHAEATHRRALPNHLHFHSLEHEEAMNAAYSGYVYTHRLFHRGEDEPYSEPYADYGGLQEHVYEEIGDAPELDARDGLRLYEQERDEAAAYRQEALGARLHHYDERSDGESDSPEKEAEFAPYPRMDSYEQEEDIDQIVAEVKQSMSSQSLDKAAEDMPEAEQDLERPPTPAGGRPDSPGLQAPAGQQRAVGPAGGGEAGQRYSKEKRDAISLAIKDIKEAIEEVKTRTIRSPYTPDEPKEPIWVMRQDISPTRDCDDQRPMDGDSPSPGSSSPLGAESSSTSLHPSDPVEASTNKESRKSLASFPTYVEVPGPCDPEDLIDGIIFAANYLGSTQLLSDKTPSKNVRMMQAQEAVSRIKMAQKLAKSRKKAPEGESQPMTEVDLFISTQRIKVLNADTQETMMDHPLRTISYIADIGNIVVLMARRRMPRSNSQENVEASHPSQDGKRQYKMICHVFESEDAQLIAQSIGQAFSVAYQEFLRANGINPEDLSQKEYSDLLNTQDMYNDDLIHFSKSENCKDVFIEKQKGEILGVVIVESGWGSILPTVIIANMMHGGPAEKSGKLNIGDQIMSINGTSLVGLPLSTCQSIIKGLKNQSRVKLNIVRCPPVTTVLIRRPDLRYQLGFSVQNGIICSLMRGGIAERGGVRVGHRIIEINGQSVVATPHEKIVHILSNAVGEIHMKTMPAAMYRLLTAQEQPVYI
Summary of the method: as §1

T1 sequence (O75970 whole entry, the tested form may be a part): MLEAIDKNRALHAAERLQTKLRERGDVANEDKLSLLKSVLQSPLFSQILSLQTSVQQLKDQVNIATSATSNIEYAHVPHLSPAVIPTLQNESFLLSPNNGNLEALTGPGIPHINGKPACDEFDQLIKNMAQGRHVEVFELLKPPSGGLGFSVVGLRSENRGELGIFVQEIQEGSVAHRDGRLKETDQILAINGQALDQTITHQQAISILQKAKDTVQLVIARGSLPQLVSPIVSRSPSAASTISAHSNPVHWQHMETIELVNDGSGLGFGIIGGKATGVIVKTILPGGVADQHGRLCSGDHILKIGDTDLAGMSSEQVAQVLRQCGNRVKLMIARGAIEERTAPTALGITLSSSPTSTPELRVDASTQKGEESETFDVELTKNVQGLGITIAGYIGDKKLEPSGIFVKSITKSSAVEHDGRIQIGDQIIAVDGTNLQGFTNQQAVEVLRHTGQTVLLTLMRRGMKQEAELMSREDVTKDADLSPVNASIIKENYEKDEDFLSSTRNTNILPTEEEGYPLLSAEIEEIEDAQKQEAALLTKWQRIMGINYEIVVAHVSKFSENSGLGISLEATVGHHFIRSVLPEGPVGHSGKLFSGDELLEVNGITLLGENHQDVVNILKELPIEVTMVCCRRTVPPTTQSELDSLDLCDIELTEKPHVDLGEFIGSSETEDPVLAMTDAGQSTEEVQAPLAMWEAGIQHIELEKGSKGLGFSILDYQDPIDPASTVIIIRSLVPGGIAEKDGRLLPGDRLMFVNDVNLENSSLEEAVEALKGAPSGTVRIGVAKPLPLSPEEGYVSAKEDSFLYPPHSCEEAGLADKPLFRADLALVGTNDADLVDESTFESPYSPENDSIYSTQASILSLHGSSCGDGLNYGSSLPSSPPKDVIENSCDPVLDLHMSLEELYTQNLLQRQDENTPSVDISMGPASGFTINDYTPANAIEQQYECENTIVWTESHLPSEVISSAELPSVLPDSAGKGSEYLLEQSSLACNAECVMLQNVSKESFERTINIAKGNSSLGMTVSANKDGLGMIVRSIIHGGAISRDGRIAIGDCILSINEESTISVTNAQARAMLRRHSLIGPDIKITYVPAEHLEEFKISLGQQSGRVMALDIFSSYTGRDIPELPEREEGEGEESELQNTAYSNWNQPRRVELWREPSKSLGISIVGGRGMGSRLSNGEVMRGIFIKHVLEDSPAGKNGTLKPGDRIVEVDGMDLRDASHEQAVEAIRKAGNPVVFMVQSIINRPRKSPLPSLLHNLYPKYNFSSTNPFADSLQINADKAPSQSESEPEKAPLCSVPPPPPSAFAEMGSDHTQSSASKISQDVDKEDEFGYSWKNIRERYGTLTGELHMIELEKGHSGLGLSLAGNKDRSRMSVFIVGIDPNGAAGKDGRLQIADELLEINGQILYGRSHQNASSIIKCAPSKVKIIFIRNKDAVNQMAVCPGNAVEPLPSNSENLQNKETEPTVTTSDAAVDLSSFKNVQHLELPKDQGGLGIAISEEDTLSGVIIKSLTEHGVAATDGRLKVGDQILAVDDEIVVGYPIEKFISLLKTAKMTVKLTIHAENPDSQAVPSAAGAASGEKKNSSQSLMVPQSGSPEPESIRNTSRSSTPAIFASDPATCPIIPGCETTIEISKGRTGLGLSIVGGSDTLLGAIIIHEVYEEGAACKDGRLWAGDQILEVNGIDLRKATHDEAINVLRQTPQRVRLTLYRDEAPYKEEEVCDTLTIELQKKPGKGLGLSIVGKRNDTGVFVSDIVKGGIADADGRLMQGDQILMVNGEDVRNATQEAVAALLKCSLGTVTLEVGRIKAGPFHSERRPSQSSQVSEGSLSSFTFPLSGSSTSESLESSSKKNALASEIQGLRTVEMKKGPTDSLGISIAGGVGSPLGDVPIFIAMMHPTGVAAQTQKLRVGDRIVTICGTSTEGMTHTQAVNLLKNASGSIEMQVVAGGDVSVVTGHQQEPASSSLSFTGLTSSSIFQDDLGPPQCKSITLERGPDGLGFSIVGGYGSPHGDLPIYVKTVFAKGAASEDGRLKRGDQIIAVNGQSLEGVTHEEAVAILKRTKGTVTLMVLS

| Kd [1] [µM] | Kd ([2]; PDZ Mint 1, PDZ Domain 1, 2) [µM] | Kd ([2]; PDZ Mint 1, PDZ Domain 1) [µM] | SMILES |
| --- | --- | --- | --- |
| 4 | 6 |  | CC[C@H](C)[C@H](NC(=O)[C@H](Cc1ccc(O)cc1)NC(=O)[C@H](CC(C)C)NC(=O)[C@H](CCC(N)=O)NC(=O)[C@H](Cc1c[nH]cn1)NC(=O)[C@H](CO)NC(=O)[C@H](C)NC(=O)[C@H](CC(C)C)NC(=O)[C@@H](NC(=O)[C@H](CC(=O)O)NC(=O)[C@H](CCSC)NC(=O)[C@H](Cc1ccccc1)NC(=O)[C@@H]1CCCN1C(=O)[C@H](CCCNC(=N)N)NC(=O)[C@@H](NC(=O)[C@H](CC(C)C)NC(=O)[C@H](CC(N)=O)NC(=O)[C@H](CC(=O)O)NC(=O)[C@@H](NC(=O)[C@H](CO)NC(=O)CCCC[C@@H]1SC[C@@H]2NC(=O)N[C@@H]21)[C@@H](C)O)C(C)C)[C@@H](C)O)C(=O)O [presenilin-2] (Biotin-STDNLVRPFMDTLASHQLYI-OH; C-terminus assumed) |
| 1.5 |  | 2 | CC[C@H](C)[C@H](NC(=O)[C@H](Cc1ccc(O)cc1)NC(=O)[C@@H](NC(=O)[C@@H]1CCCN1C(=O)[C@H](CCC(N)=O)NC(=O)[C@H](CCC(=O)O)NC(=O)[C@H](CCC(N)=O)NC(=O)[C@H](C)NC(=O)[C@@H](NC(=O)[C@H](CC(C)C)NC(=O)[C@H](CC(C)C)NC(=O)[C@H](CCCNC(=N)N)NC(=O)[C@H](Cc1ccc(O)cc1)NC(=O)[C@H](CCSC)NC(=O)[C@H](C)NC(=O)[C@H](C)NC(=O)[C@@H]1CCCN1C(=O)[C@H](CCSC)NC(=O)[C@@H](NC(=O)[C@H](CCCCN)NC(=O)CCCC[C@@H]1SC[C@@H]2NC(=O)N[C@@H]21)[C@@H](C)O)[C@@H](C)O)C(C)C)C(=O)O [MINT-1] (Biotin-KTMPAAMYRLLTAQEQPVYI-OH; C-terminus assumed) |
